From patent publication US20080108894A1, “Methods and Systems of Analyzing Clinical Parameters and Methods of Producing Visual Images” (priority 2004, published 2008)
Entries after “also recorded” stand apart in the source; their conditions may differ.

Columns and labels:
infarcted myocardium [1] = experiment: R1 mapping with SI0 map 20 minutes after Gd(DTPA) in dogs 48 h after reperfusion of myocardial infarction; type: in vivo, dog
Description: In three dogs (n=3), weighing 18-20 kg, myocardial infarctions (MI) were generated by a 180-minute closed-chest coronary artery occlusion. Forty-eight hours following reperfusion, baseline R10 map and SI0-map (see below) were generated using the inversion-recovery (IR) technique with multiple inversion times (TI) (FIG. 6). Delayed-Enhancement (DE) imaging was carried out exactly 15 minutes after Gd(DTPA) (0.2 mmol/kg) administration. Baseline parametric R10 maps, and corresponding SI0 maps, that cover the left ventricle (LV), in a dog 48 h after myocardial infarction, are shown in FIG. 6. R1 was calculated from the SI vs. TI dependence as detailed herein. The calculated baseline relaxation rate of myocardium was R10=1.03±0.05 s^−1, which was later used for calculating the PIM. For the purpose of generating PIMs, 20 minutes after the administration of Gd(DTPA), high resolution images of the entire heart were acquired with two TIs using the same image localizations and sequence parameters (except the TI) as for the baseline R10 and SI0 maps. Details of selecting the optimum TIs are discussed further below. From these images and from the corresponding SI0 maps, voxel-by-voxel R1 maps were generated. Average R1 values in remote myocardium and infarct core were R1=1.73±0.07 s^−1, and R1=3.22±0.09 s^−1, respectively. R1 in LV chamber blood was R1=2.53±0.05 s^−1. ΔR1 (ΔR1=R1−R10) was calculated automatically for each voxel utilizing the baseline R10 map. Average ΔR1r in the remote viable regions was 0.7±0.07 s^−1, while in the center of the infarct (denoted 100% infarcted) ΔR1c was 2.19±0.09 s^−1. The contribution of any contrast-agent-accumulating infarct islet contributes to the total ΔR1 of that voxel. Therefore, ΔR1 is proportional to the amount of non-viable tissue present in any given voxel. Thus, a percent infarct (PI) scale was created, where the core ΔR1c (maximum R1 enhancement observed in the center of the infarct) was considered 100% whereas the ΔR1r of remote areas was 0%. In the canine model used in the present disclosure, the myocardial infarct was generated by prolonged proximal occlusion of the Left Anterior Descending coronary artery, using an intracoronary balloon catheter. Animals were anesthetized and mechanically ventilated during MRI sessions (using isoflurane). A 1.5 Tesla GE Signa Horizon “Cardiac CV” instrument was used for cardiac MRI. Images were generated in standard consecutive short-axis planes (6 slices covering the entire LV) and one additional three-chamber long-axis view to assess the apex (left ventricular outflow tract view).

infarcted myocardium [2] = experiment: R1 mapping (inversion recovery MRI) 24 h and 48 h after PCA in canine reperfused myocardial infarction; type: in vivo, dog; conditions: for Average R1r (R1 in remote regions) / Average ΔR1r (ΔR1 in remote regions): remote myocardium
Text: In FIG. 2, multislice voxel-by-voxel R1 maps (A) and PIMs (B), generated from such images, are shown. The good quality and coregistration of images acquired with varying TI, was confirmed by the R^2 values obtained for the pixel-by-pixel curve-fitting applied to the SI vs. TI dependence. Average R^2 in the myocardium was 0.99±0.005.
Average R10 was 0.98±0.05 s^−1, in agreement with other investigators' findings. […] This proves Gd(ABE-DTTA) to be a PCA suitable for multi-T1 R1 mapping.
In the canine model used in the present disclosure, the myocardial infarct was generated by prolonged proximal occlusion of the Left Anterior Descending coronary artery, using an intracoronary balloon catheter. Animals were anesthetized and mechanically ventilated during MRI sessions (using isoflurane).
A 1.5 Tesla GE Signa Horizon “Cardiac CV” instrument was used for cardiac MRI. Images were generated in standard consecutive short-axis planes (6 slices covering the entire LV) and one additional three-chamber long-axis view to assess the apex (left ventricular outflow tract view).
A 180°-prepared, segmented, fast gradient-echo sequence, was used to determine R1 values of the myocardium using the inversion recovery method. Short axis and long axis images were generated using the following parameters: FOV 300 mm, image matrix 256×256, slice thickness 10 mm, read out flip angle 25°, echo time (TE) 3.32 ms, repetition time (TRp) 7.18 ms, and recycle time (TR) 1200-2000 ms (three R-R intervals, depending on heart rate, but constant throughout an entire given R1 mapping procedure). Inversion times (TI) in the range of 200-1200 ms were used. In theory, 6 different TIs should be sufficient to generate a R1 map. In this disclosure, however, 8-10 TIs were used to ensure accuracy of R1 determination. The R1 values were calculated from the SI vs. TI dependence, applying a three-parameter least-squares curve fitting routine, using the following formula: […]
Since all MRI parameters below reflect the entire volume element in the slice, associated with a given pixel, from this point on the term voxel, rather than pixel, will be used.). The relaxation rate R1 (R1≡1/T1) of each voxel was composed of R10, the myocardial R1 observed in the absence of both infarct and PCA, and ΔR1, the contribution of the PCA present in the voxel:
Using Eq. 2, the R1 map was transformed into a ΔR1 map. The average ΔR1r value of areas remote from the infarct zone (about 600 voxels), was considered representative of 0% infarction.
As a threshold, ΔR1v of all remote voxels where R1v<R1r+2SD, was set to zero.

[3] = 20 minutes after Gd(DTPA) 0.2 mmol/kg
[4] = 20 minutes after Gd(DTPA), ΔR1=R1−R10

Compound | Average R1 in infarct core (infarcted myocardium [1]; [3]) [s⁻¹] | Average R1 in remote myocardium (infarcted myocardium [1]; [3]) [s⁻¹] | R1 in LV chamber blood (infarcted myocardium [1]; [3]) [s⁻¹] | Average ΔR1r in the remote viable regions (infarcted myocardium [1]; [4]) [s⁻¹] | ΔR1c in the center of the infarct (denoted 100% infarcted) (infarcted myocardium [1]; [4]) [s⁻¹] | Average R1c (R1 in infarct core) (infarcted myocardium [2]; 24 h after PCA) [s⁻¹] | Average ΔR1c (ΔR1 in infarct core) (infarcted myocardium [2]; 24 h after PCA) [s⁻¹] | Average R1r (R1 in remote regions) (infarcted myocardium [2]; 24 h after PCA) [s⁻¹] | Average ΔR1r (ΔR1 in remote regions) (infarcted myocardium [2]; 24 h after PCA) [s⁻¹] | Average R1c (R1 in infarct core) (infarcted myocardium [2]; 48 h after PCA) [s⁻¹] | Average ΔR1c (ΔR1 in infarct core) (infarcted myocardium [2]; 48 h after PCA) [s⁻¹] | Average R1r (R1 in remote regions) (infarcted myocardium [2]; 48 h after PCA) [s⁻¹] | Average ΔR1r (ΔR1 in remote regions) (infarcted myocardium [2]; 48 h after PCA) [s⁻¹] | hourly change in R1 in all myocardial areas (infarcted myocardium [2]; between 24 and 48 hours post PCA) | persistence of ΔR1 / agent in the infarct (infarcted myocardium [2]; infarct region, after a single administration) | hourly change in R1 (infarcted myocardium [2]; viable tissue, between 24 and 48 hours post PCA, interpolated) [percent/hour] | rate of decay in the infarct (infarcted myocardium [2]; within the acquisition time frame of about 30-40 minutes)
O=C([O-])CN(CCN(CC(=O)[O-])CC(=O)O)CCN(CC(=O)[O-])CC(=O)O.[Gd+3] [Gd(DTPA)] | 3.22 ± 0.09 | 1.73 ± 0.07 | 2.53 ± 0.05 | 0.7 ± 0.07 | 2.19 ± 0.09 |  |  |  |  |  |  |  |  |  |  |  | 
Gd(ABE-DTTA) |  |  |  |  |  | 2.33 ± 0.5 | 1.21 ± 0.5 | 1.23 ± 0.06 | 0.26 ± 0.03 | 2.31 ± 0.4 | 1.27 ± 0.3 | 1.15 ± 0.08 | 0.18 ± 0.05 | less than one percent of the measured R1 | observable throughout the first week from administration; also recorded: still observable in the infarct region one week after administration | 0.26±0.1 | less than 1 % of R1
